Data: article PMC9000469 (Molecules, 2022)
Values joined by “and” are separate entries in the source; they are usually repeats but may differ in a detail not shown here. Identical values can stand only once. “Also recorded” adds a separate entry of the source. Counter-ions that a name gives are not always drawn. Like-named read-outs stand apart in the source and are kept apart here.

What was measured:
[1] = Permeability across the PermeaPad 96-well plate biomimetic barrier; assay type: in vitro ADME; conditions: for Effect of medium pH (6.8 versus 7.4) on permeability across the PermeaPad barrier: Student t-test, p > 0.05; for Permeability across the PermeaPad barrier by passive diffusion (in words): pH 6.8 and 7.4; for Papp on the Permeapad membrane: pH not stated in the sentence (equals the pH 7.4 value of Figure 4)
Procedure: The […]® 96-well plate was purchased from InnoME GmbH ([…], Germany). The plate consists of a bottom plate, a screen plate with a lipid barrier and a lid. The surface area for permeation studying is 0.15 cm^2. The permeability tests across a biomimetic barrier of drug substances were performed from the bottom to the top compartment. The compounds were dissolved in PBS with pH 6.8 or 7.4. […] The permeation tests for all compounds were performed at room temperature (25 °C). HPLC methods were used to determine the concentration of the compound transported. The apparent permeability coefficient (Papp) was calculated according to the protocol described by di Cagno et al..

[2] = set-up: method as in PMID 25840123; conditions: concentration 5 mM; cited from earlier work
[3] = Physicochemical properties of compounds (pKa, logP); conditions: internal data
Description: PA was obtained from Ethifarm (Ethifarm, Poznan, Poland). Reference substances CAF and NF were obtained from Sigma Aldrich (Merck Group, Darmstadt, Germany).

Caco-2 monolayer [4] = conditions: previously published results, cited from earlier work
Caco-2 cells = assay: MTT cytotoxicity assay in Caco-2 cells; conditions: 0.0–2.0 mg/mL, 2 h exposure
Procedure: After leaving them overnight, different concentrations of analyzed substances in HBSS pH 7.4 were added.. Cells were exposed to the substances for 2 h (time of transport across monolayer) in an incubator under optimal culture conditions. After incubation, the solution was removed and the mixture of DMEM cell culture medium and MTT (5 mg/mL) was added. Cells were incubated for 2 h, and then the resulting formazan crystals were dissolved in DMSO. The absorbance was measured using an Elx-800 absorbance microplate reader (Biotek, Winooski, VT, USA) at wavelength 540 nm.

[5] = cited from earlier work
PEPT1 = test system: PEPT1; set-up: method as in PMID 19519280; conditions: cited from earlier work
[6] = cited from earlier work; remark: listed apart in the source
PEPT2 = test system: PEPT2; set-up: method as in PMID 19519280; conditions: cited from earlier work
Caco-2 monolayer [7] = conditions: for Papp across Caco-2 monolayer: basolateral to apical, 2 h, pH 7.4, 37 °C, mean ± SD, n = 3
Procedure: For the transport study, the Caco-2 cells were seeded at 4 × 10^5 cells/well on the permeable cell culture inserts with a 0.4 µm pore diameter (Millipore-Merck Group, Darmstadt, Germany) placed in 6-well plates. The cells were cultured for 22 days in the incubator under optimal culture conditions (37 °C, 5% CO2, and 95% air) to their spontaneity differentiating. The integrity of the monolayer was tested by measuring the Trans Epithelial Electrical Resistance (TEER) every 48 h using a Millicel ERS-2 Voltohmmeter (Millipore-Merck Group, Darmstadt, Germany). The cells’ monolayer with an average TEER value > 600 Ohm × cm^2 was considered to be suitable for permeability testing.
The permeability tests across the Caco-2 monolayer of substances were performed from basolateral to the apical compartment (B–A). Plates with cell culture inserts were incubated at 37 °C with shaking at 100 rpm for 2 h. Drug substances were dissolved in the transport buffer solution (HBSS with 25 mM HEPES, pH 7.4) and placed into a donor compartment. The solution volume in the apical and basolateral compartments was maintained at 2 mL and 4 mL, respectively. The samples (150 µL) from the acceptor compartment were taken at 15 min intervals and were replaced with fresh reheated (37 °C) buffer. The HPLC analysis described below was used to determine the concentration of the compound transported. Transport kinetics and the apparent permeability coefficient (Papp) were calculated according to the protocols described by Tavelin et al. and Hubatsch et al..
Concentrations of all compounds transported were determined by the reverse phase HPLC with UV-VIS detection. HPLC analysis was conducted on Waters UPLC Acquity H-class apparatus with Empower 3.0 software (Waters Corporation, Milford, MA, USA). […] The isocratic flow rate was set as 0.6 mL/min and the detection wavelength on λ = 215 nm.

[8] = conditions of high temperatures and relative humidity; cited from earlier work

With `Cn1c(=O)c2c(ncn2C)n(C)c1=O` [CAF, caffeine] the “Effect of medium pH (6.8 versus 7.4) on permeability across the PermeaPad barrier” value [1] was “no significant difference”, the “Permeability across the PermeaPad barrier by passive diffusion (in words)” value [1] was “highest transport” and the “Permeability across the PermeaPad barrier by passive diffusion (in words)” value ([1]; listed as Caffeine) was “high permeable”. For the same compound, the “Papp in the PermeaPad barrier” value [2] was 24 ×10⁻⁶ cm/s.
In the case of `CCN(CC)CCOC(=O)C(Cc1cccc2ccccc12)CC1CCCO1` (stereo not shown) [NF, Naftidrofuryl oxalate], the “Effect of medium pH (6.8 versus 7.4) on permeability across the PermeaPad barrier” value [1] is reported as “slightly lower permeability of NF in medium at pH 7.4”, the Papp at 4 h ([1]; not told, both 0.2 mg/mL and 0.125 mg/mL, read-out: Papp through the PermeaPad membrane, bound stated for both concentrations) is reported as over 10 ×10⁻⁶ cm/s and the “Permeability across the PermeaPad barrier by passive diffusion (in words)” value [1] is reported as “relatively high and high”. For the same compound, the pKa [3] was 4.1, the “Papp through the Caco-2 monolayer” value (Caco-2 monolayer [4]; 0.125 mg/mL) was 84.1 ×10⁻⁶ cm/s and the “Papp through the Caco-2 monolayer” value (Caco-2 monolayer [4]; 0.2 mg/mL) was 78.8 ×10⁻⁶ cm/s.
In the case of `CCC[C@H](N[C@@H](C)C(=O)N1[C@H](C(=O)O)C[C@@H]2CCCC[C@@H]21)C(=O)OCC.N=C(N)NCCC[C@H](N)C(=O)O` [PA, Perindopril arginine], the “Cytotoxicity to the Caco-2 cell line (MTT)” value (Caco-2 cells) is listed as “not cytotoxic; also recorded: No effect”, the “Time to peak plasma concentrations (absorption completed)” value ([5]; after oral administration) is listed as “approximately 1 h” and the Absolute oral bioavailability [5] is listed as 75%. For the same compound, the “Interaction with the intestinal peptide transporter PEPT1” value (PEPT1) was “relatively poor interaction”, the “Permeability (BCS characterisation)” value [6] was “low permeability” and the “Permeability (characterisation)” value [6] was “low permeability”. For the same compound, the “Interaction with the intestinal peptide transporter PEPT2” value (PEPT2) was “relatively poor interaction”, the “Compound Permeability (Caco-2 monolayer)” value (Caco-2 monolayer [7]; 1.0 mg/mL) was “low (when Papp is lower than 1 × 10^−6 cm/s, the substance is considered poorly permeable)” and the “Papp across Caco-2 monolayer” value (Caco-2 monolayer [7]; 1.0 mg/mL) was 0.72 ± 0.04 × 10^−6 cm/s. The “Papp across Caco-2 monolayer” value (Caco-2 monolayer [7]; 2.0 mg/mL) was 1.94 ± 0.96 × 10^−6 cm/s, the “Papp on the Permeapad membrane” value ([1]; 1.0 mg/mL) was 35.7 ×10⁻⁶ cm/s and the “Papp on the Permeapad membrane” value ([1]; 2.0 mg/mL) was 43.9 ×10⁻⁶ cm/s. The “Effect of medium pH (6.8 versus 7.4) on permeability across the PermeaPad barrier” value [1] was “did not affect; also recorded: no significant differences”, the “Permeability across the PermeaPad barrier by passive diffusion (in words)” value [1] was “lowest permeability; also recorded: relatively low permeability” and the “pKa (strongest acid)” value [3] was 3.17. The “pKa (strongest base)” value [3] was 5.67, the logP ([3]; two values printed per compound without explanation) was 0.65 and 0.56 and the “Shelf life and stability of the arginine salt compared with the erbumine salt” value [8] was “greater shelf life and stability”.
In the case of `CCC[C@H](N[C@@H](C)C(=O)N1[C@H](C(=O)O)C[C@@H]2CCCC[C@@H]21)C(=O)O` [Perindoprilat, perindoprilat], the “Average bioavailability of the active metabolite” value ([5]; after oral PA) is listed as “about 25%” and the Mean half-life [5] is listed as 5 to 11 h.
In the case of `CCC[C@H](N[C@@H](C)C(=O)N1[C@H](C(=O)O)C[C@@H]2CCCC[C@@H]21)C(=O)OCC` [perindopril], the “Fraction metabolized into perindoprilat during the first pass of the liver” value ([5]; oral administration, no ref printed with the sentence) is given as 30–50%.
